Tested on: GST-tagged Cn
Assay: PEPperPRINT peptide microarray binding assay with GST-tagged Cn
How it was run: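 Qualitative binding: peptides printed on a PEPperPRINT microarray were incubated overnight at 4 °C with 1 mg/ml GST-tagged Cn, then detected with Alexa-Fluor 647 anti-GST antibody. Log fluorescence was baseline-corrected, averaged over duplicate spots, Z-normalized and averaged across five repeats.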

[1] = GST-tagged Cn, max over the chip spots listed under Location on chip
[2] = GST-tagged Cn, mean over the chip spots listed under Location on chip
[3] = GST-tagged Cn, max over the spots named in Location on chip
[4] = GST-tagged Cn, mean over the spots named in Location on chip
[5] = GST-tagged Cn, max over the spots on the chip (two locations)
[6] = GST-tagged Cn, mean over the spots on the chip (two locations)
[7] = max over the spots listed under Location on chip
[8] = mean over the spots listed under Location on chip
[9] = max over the chip locations listed for the peptide (two spots)
[10] = mean over the chip locations listed for the peptide (two spots)
[11] = GST-tagged Cn, max over the chip locations
[12] = GST-tagged Cn, mean over the chip locations

## GTESTPSVVVHVCDSD [SeqRCN1_Desmodus_rotundus]
[1]
  Chip Fluorescence (max): 0.4586
[2]
  Chip Fluorescence (mean): 0.04317

## ATSGTFPQTEGSHKKQ [SeqRBMlowT_5854]
[3]
  Chip Fluorescence (max): 1.785
[4]
  Chip Fluorescence (mean): -0.4136

## FNSWRQVPLWSPEFHT [SeqRBM_9832]
[5]
  Chip Fluorescence (max): 1.192
[6]
  Chip Fluorescence (mean): 0.531

## TFWTNPQFRIKLEDPD [SeqRBMlowT_91]
[7]
  Chip Fluorescence (max): 2.652
[8]
  Chip Fluorescence (mean): 0.4239

## FHYEDLSWHFQLFEGE [Seqrandom_9976]
[9]
  Chip Fluorescence (max): 5.256
[10]
  Chip Fluorescence (mean): 1.49

## KAYINPFMTFIEGGRK [SeqRBMlowT_3627]
[9]
  Chip Fluorescence (max): 4.329
[10]
  Chip Fluorescence (mean): 0.4696

## TFWTNPQFKVKLEDPD [SeqRBMlowT_4293]
[1]
  Chip Fluorescence (max): 0.7466
[2]
  Chip Fluorescence (mean): -0.6386

## TFWTNPQYRIKLEEED [SeqRBMlowT_1298]
[3]
  Chip Fluorescence (max): 1.462
[4]
  Chip Fluorescence (mean): 0.439

## PALESPRIEITSCLGL [SeqNFATC1_Homo_sapiens]
[3]
  Chip Fluorescence (max): 1.48
[4]
  Chip Fluorescence (mean): 0.3949

## HVSSSPDITVTPTQHR [SeqRBMlowT_701]
[11]
  Chip Fluorescence (max): 0.2772
[12]
  Chip Fluorescence (mean): -0.7766

## VHQCTPEVSVSVCFTC [SeqRBM_8420]
[11]
  Chip Fluorescence (max): 0.0911
[12]
  Chip Fluorescence (mean): -0.9088

## LLDDVPDVVVHPPEED [SeqRBMlowT_144]
[9]
  Chip Fluorescence (max): 4.37
[10]
  Chip Fluorescence (mean): 2.238

## ASSSAPEIVVSKPEHN [SeqKCNN2_Pan_troglodytes]
[1]
  Chip Fluorescence (max): 0.501
[2]
  Chip Fluorescence (mean): -0.7597

## AHVSVPVIVVSPGETI [SeqRBM_3486]
[11]
  Chip Fluorescence (max): 0.2381
[12]
  Chip Fluorescence (mean): -0.4942

## SAGAGVQIVITVTEAE [SeqRBMlowT_1437]
[5]
  Chip Fluorescence (max): 1.271
[6]
  Chip Fluorescence (mean): -0.4781

## PMMAVPSISSDVSNAP [SeqRBM_5566]
[3]
  Chip Fluorescence (max): 1.398
[4]
  Chip Fluorescence (mean): 0.7603

## QTEDQPGIIVHTAMLP [SeqRCN1_Bactrocera_dorsalis]
[1]
  Chip Fluorescence (max): 0.5479
[2]
  Chip Fluorescence (mean): -0.783

## KSKLIPKLSIQSPVHH [SeqRBMlowT_830]
[11]
  Chip Fluorescence (max): -0.5565
[12]
  Chip Fluorescence (mean): -1.425

## RAYINPFMQFQIGGNH [SeqRBMlowT_4074]
[7]
  Chip Fluorescence (max): 2.865
[8]
  Chip Fluorescence (mean): 0.3097

## VPDIGHMALHHDQIQP [Seqrandom_9983]
[1]
  Chip Fluorescence (max): 0.5967
[2]
  Chip Fluorescence (mean): -0.4753

## SAGTGVGIVITVTEAE [SeqRBMlowT_1404]
[9]
  Chip Fluorescence (max): 4.275
[10]
  Chip Fluorescence (mean): 0.4123

## DTLWIGSGTVTDSGNY [SeqRBM_1220]
[9]
  Chip Fluorescence (max): 3.766
[10]
  Chip Fluorescence (mean): 0.1629

## RNPGQPLLELEGHSAP [SeqRBMlowT_7742]
[9]
  Chip Fluorescence (max): 5.135
[10]
  Chip Fluorescence (mean): 0.4912

## PGCATPRIAITPTENM [SeqRBM_2983]
[5]
  Chip Fluorescence (max): 1.167
[6]
  Chip Fluorescence (mean): 0.2882

## RFRTELSFGFTGFGTD [Seqshuffled_9528]
[1]
  Chip Fluorescence (max): 0.42
[2]
  Chip Fluorescence (mean): -0.6398

## VQLFIHLPSSDDTGSY [SeqRBM_6875]
[5]
  Chip Fluorescence (max): 1.006
[6]
  Chip Fluorescence (mean): -4.049

## SQMGKSRPWVSPERDN [SeqRBM_2721]
[1]
  Chip Fluorescence (max): 0.7358
[2]
  Chip Fluorescence (mean): -0.1667

## GELAIKNMKPWDVGGY [SeqRBM_3830]
[7]
  Chip Fluorescence (max): 3.053
[8]
  Chip Fluorescence (mean): 1.402

## GGPGTPGRPGIHSAPS [SeqRBM_5424]
[3]
  Chip Fluorescence (max): 1.6472
[4]
  Chip Fluorescence (mean): -0.88

## KSRALSKVVINEPLTI [SeqTRESK_Leptosomus_discolor]
[5]
  Chip Fluorescence (max): 1.0328
[6]
  Chip Fluorescence (mean): -0.6623

## LKDEFSDVRLNIISNL [SeqRBMlowT_1878]
[1]
  Chip Fluorescence (max): 0.7069
[2]
  Chip Fluorescence (mean): 0.04327

## LNLEIPEVRLNIISAL [SeqRBMlowT_8463]
[11]
  Chip Fluorescence (max): 0.2778
[12]
  Chip Fluorescence (mean): -0.136

## VSLKIPGSSAIDLTAS [SeqFLNA_Trichinella_nativa]
[11]
  Chip Fluorescence (max): -0.0417
[12]
  Chip Fluorescence (mean): -0.9527

## LKDESPEVRLNIISSL [SeqRBMlowT_1855]
[7]
  Chip Fluorescence (max): 3.106
[8]
  Chip Fluorescence (mean): 1.095

## SRPLDEEGAMAPTLAN [SeqRIPOR2_Propithecus_coquereli]
[1]
  Chip Fluorescence (max): 0.9511
[2]
  Chip Fluorescence (mean): 0.1118

## GTMSPPDISITPPYAP [SeqRBM_3223]
[11]
  Chip Fluorescence (max): 0
[12]
  Chip Fluorescence (mean): -0.3136

## TFHLNPQYRITLEDPD [SeqCAPN11_Daphnia_magna_3]
[3]
  Chip Fluorescence (max): 1.7985
[4]
  Chip Fluorescence (mean): 0.6671

## VVMHKMPKTGGWWHCP [Seqrandom_9963]
[7]
  Chip Fluorescence (max): 2.722
[8]
  Chip Fluorescence (mean): 1.008

## FSMLIGMHEPHPNTTI [Seqrandom_9971]
[3]
  Chip Fluorescence (max): 1.524
[4]
  Chip Fluorescence (mean): -0.1169

## ASVSNPEITVTSAETE [SeqRBM_9489]
[9]
  Chip Fluorescence (max): 15.1807
[10]
  Chip Fluorescence (mean): 1.275

## KAYMCPFMQFIEGGRR [SeqSFB3_Pan_troglodytes]
[1]
  Chip Fluorescence (max): 0.9778
[2]
  Chip Fluorescence (mean): -1.603

## TFWSNPQFTITLAEPD [SeqRBMlowT_8092]
[1]
  Chip Fluorescence (max): 0.3751
[2]
  Chip Fluorescence (mean): -0.8998

## HVSSSPDITITPTQHR [SeqRBMlowT_702]
[5]
  Chip Fluorescence (max): 1.204
[6]
  Chip Fluorescence (mean): 0.3347

## LKDQFPKVRLNIIDAP [SeqRBM_543]
[7]
  Chip Fluorescence (max): 2.925
[8]
  Chip Fluorescence (mean): 0.6756

## LSARYPEIVVSVPEHN [SeqRBM_9361]
[1]
  Chip Fluorescence (max): 0.7337
[2]
  Chip Fluorescence (mean): -0.349

## TFWSNPQFKIKLEEPD [SeqRBMlowT_2229]
[5]
  Chip Fluorescence (max): 1.024
[6]
  Chip Fluorescence (mean): -0.06201

## QGYKNPSAQFEPIGTK [SeqRBM_6874]
[11]
  Chip Fluorescence (max): -0.3081
[12]
  Chip Fluorescence (mean): -1.163

## TFWHNPQYVINLEDPD [SeqCAPN11_Anopheles_dirus]
[3]
  Chip Fluorescence (max): 1.5542
[4]
  Chip Fluorescence (mean): 0.5719

## GTETTPSVVVHVCEDD [SeqRBMlowT_112]
[9]
  Chip Fluorescence (max): 4.01
[10]
  Chip Fluorescence (mean): 1.52

## STSSLPTFSFSSLAPS [SeqRBMlowT_2354]
[5]
  Chip Fluorescence (max): 1.162
[6]
  Chip Fluorescence (mean): -0.4848

## TFWTNPQYRLKLEEVD [SeqRBMlowT_1143]
[5]
  Chip Fluorescence (max): 1.092
[6]
  Chip Fluorescence (mean): 0.4965

## KHATSPRINITQTSTL [SeqRBM_2048]
[1]
  Chip Fluorescence (max): 0.7747
[2]
  Chip Fluorescence (mean): -0.7747

## RNPGSPTLELNGHSGG [SeqRBM_9695]
[5]
  Chip Fluorescence (max): 1.159
[6]
  Chip Fluorescence (mean): -0.3352

## PQLYQNVLGIGSFSLS [SeqRBMlowT_4804]
[1]
  Chip Fluorescence (max): 0.4517
[2]
  Chip Fluorescence (mean): -0.7977

## RTYINPFVTFVDGGNK [SeqRBMlowT_3664]
[11]
  Chip Fluorescence (max): 0.3337
[12]
  Chip Fluorescence (mean): -0.6971

## QFKKSNLLGFMAASGD [Seqshuffled_9600]
[5]
  Chip Fluorescence (max): 0.9897
[6]
  Chip Fluorescence (mean): 0.1872

## DSLEGATIVITLTEGK [SeqRBM_8933]
[9]
  Chip Fluorescence (max): 3.74
[10]
  Chip Fluorescence (mean): 0.5914

## LKDEFPDVRLHIISKL [SeqRCN1_Arthroderma_otae]
[5]
  Chip Fluorescence (max): 1.269
[6]
  Chip Fluorescence (mean): 0.6031

## PFLAEQYMVVEEMTVS [Seqshuffled_9732]
[3]
  Chip Fluorescence (max): 1.48
[4]
  Chip Fluorescence (mean): -0.4167

## TFWANPQFRIKLEEPD [SeqRBMlowT_4612]
[11]
  Chip Fluorescence (max): 0.1586
[12]
  Chip Fluorescence (mean): -0.3624

## ATSEQPTFDLSSAMPT [SeqRBM_6206]
[11]
  Chip Fluorescence (max): -1.8391
[12]
  Chip Fluorescence (mean): -2.255

## STSSLPTFSFSSPLST [SeqRBMlowT_892]
[3]
  Chip Fluorescence (max): 1.3512
[4]
  Chip Fluorescence (mean): -0.8669

## SSRIQSKIVVNEPKQI [SeqRBM_7418]
[11]
  Chip Fluorescence (max): -0.3136
[12]
  Chip Fluorescence (mean): -1.152
